Test results reported in US20210353613A1, “TREATMENT OF NEUROLOGICAL DISEASE” (Aclipse One Inc., priority 2018, published 2021).
“Also recorded” adds a separate entry of the source.

Tests used:
Format in all cases: cell-based
[1] = tested on: mouse motor neuron (MN) survival; assay: Co-culture of patient iAstrocytes with mouse Hb9-GFP motor neurons: MN survival; settings: for mouse Hb9GFP+ motor neuron rescue: percentage of motor neuron survival: FIG. 4, 10uM, 3 days after administration, compared to vehicle (DMSO), sALS, SOD1, C9orf72 iAstrocytes
Procedure: Induced astrocytes from control or ALS patients were used in a co-culture assay to determine their effect on mouse motor neuron (MN) survival. Mouse embryonic stem cell-derived motor neurons expressing green fluorescence protein (GFP) under the control of the HB9 promoter were sorted and added to iAstrocytes from patients and controls. […] The survival of mouse MNs was monitored on Day 1 and 3 with confocal image acquisition.
The MN survival on Day 3 was evaluated as a percentage of survived MN cells observed on Day 1.

induced MN cells = assay: Co-culture of iAstrocytes with human induced motor neurons from the same donors: MN survival; settings: for MN survival on Day 3: 10 μM
Procedure: Induced Astrocytes from healthy controls or ALS patients were also used in a co-culture assay to determine their effect on the survival of induced MN cells from the same healthy controls or ALS patients.
The preparation of iAstrocytes and induced MN cells has been described in Example 1. […] The MN survival on Day 3 was evaluated as a percentage of survived MN cells observed on Day 1.

misfolded SOD1 = assay: Misfolded SOD1 immunocytochemistry (B8H10 antibody) in human iAstrocytes; settings: for SOD1 misfolding in human iAstrocytes: FIGS. 7 and 8 legends, iAstrocytes from controls and C9orf72, SOD1, sporadic ALS patients; for misfolded SOD1 positive cells: 10 μM, 24 hours
Procedure: The preparation of iAstrocytes has been described in Example 1. At Day 5, the 96 well plate was coated with fibronectin diluted 1:400 in PBS and allowed to set for cell adhesion. iAstrocytes were first washed in an appropriate volume of PBS before incubating for 5 min at 37° C. in lml of accutase. The accutase was neutralized in an appropriate volume of iAstrocyte medium and cells were collected in a 15 ml falcon and centrifuged at 200g for 4 min to form a pellet. The pellet was resuspended in an appropriate volume of medium and the cells were counted using a Burker hemocytometer. The cells were seeded at the desired density and were left for 24 hours to adhere. […]
At Day 7, iAstrocytes were fixed in 4% PFA. These were then stained with misfolded SOD1 antibody (B8H10), CD44 to identify cell area and DAPI. Columbus analysis software was used to quantify immunocytochemistry images. In each condition, the number of nuclei was established. In astrocytes stained for misfolded SOD1 protein aggregates, the number, intensity and area of misfolded SOD1 aggregates within the nucleus and surrounding perinuclear area were quantified as well as the percentage of cells positive for misfolded SOD1 accumulation.

[2] = iAstrocytes from three ALS patients with C9orf72 mutation, mouse MNs
[3] = iAstrocytes and induced MNs from ALS patient with C9orf72 mutation

| SMILES | mouse Hb9GFP+ motor neuron rescue: percentage of motor neuron survival [1] | MN survival on Day 3 (percentage of survived MN cells observed on Day 1) ([1]; iAstrocytes from ALS patients with C9orf72 mutation, mouse MNs, untreated no more than 33%) | survival of MN cells on Day 3 ([1]; iAstrocytes from ALS patients with SOD1 mutation, mouse MNs) | survival of MN cells on Day 3 [1, 2] | MN survival on Day 3 (induced MN cells; [3]) | toxicity of astrocytes to MN cells (MN survival on Day 3) (induced MN cells; iAstrocytes and induced MNs from ALS patient with SOD1 mutation) | MN survival on Day 3 (induced MN cells; iAstrocytes and induced MNs from sALS patients) | percentage of misfolded SOD1 perinuclear aggregates (DMSO = 100%) (misfolded SOD1; FIG. 9, 10uM, 48 hours, iAstrocytes of sALS, SOD1, C9orf72 patients and controls, listed as (6a5)-6-methyl-5,6,6a,7-tetrahydro-4H-dibenzo[de,g]quinoline-10,11-diol) | SOD1 misfolding in human iAstrocytes (misfolded SOD1) | misfolded SOD1 positive cells (misfolded SOD1; SOD1 astrocytes compared with other cell types) | misfolded SOD1 positive cells (misfolded SOD1; all cell types (control, C9orf72, SOD1, sporadic iAstrocytes)) | survival of MN cells on Day 3 ([1]; iAstrocytes from three sporadic ALS (sALS) patients, mouse MNs) |
| --- | --- | --- | --- | --- | --- | --- | --- | --- | --- | --- | --- | --- |
| CN1CCc2cccc3c2[C@@H]1Cc1ccc(O)c(O)c1-3 [(6aS)-6-methyl-5,6,6a,7-tetrahydro-4H-dibenzo[de,g]quinoline-10,11-diol] | increase in percentage of motor neuron survival | up to 38% | most significant improvement | significantly improved | the most significant outcome | most effectively dampened the toxicity of SOD1-derived astrocytes | beneficial at reducing toxicity caused by iAstrocytes from some sporadic patients over others | reduction of misfolded SOD1 in all patient lines treated; also recorded: significant reduction in misfolded SOD1 in 6 different patient lines | Reduced SOD1 misfolding | greatest decrease in SOD1 astrocytes | reduction of misfolded SOD1 positive cells across all cell types | – |
| C=C1CC[C@@H]2[C@](C)(CO)[C@H](O)CC[C@@]2(C)[C@@H]1C/C=C1/C(=O)OC[C@H]1O [andrographolide, reference compound] | increase in percentage of motor neuron survival | – | – | significantly improved | the most significant outcome | – | – | – | Reduced SOD1 misfolding | – | – | most significantly improved |
| Nc1nc2ccc(OC(F)(F)F)cc2s1 [riluzole, reference compound] | – | – | – | – | – | – | – | – | Reduced SOD1 misfolding | – | – | – |
